Numbered stars: 1 amine (or outer) side, 2 acyl side, 3 side chain; on linkers, the order of the positions; unused ones are H or OH. Peptide text beside a SMILES is read from it. * marks the point of attachment. C20 diacid = O=C(O)CCCCCCCCCCCCCCCCCCC(=O)*; C18 diacid = O=C(O)CCCCCCCCCCCCCCCCC(=O)*; γGlu = O=C(O)[C@H](CCC(=O)[*:2])N[*:1]
What was measured:
[1] = Stability in pH 7.5 buffer assessed as lag time for fibril formation at 1 uM by Thioflavin T based fluorescence assay; type: physicochemical; conditions: pH 7.5, 1 µM
[2] = Stability in pH 7.5 buffer assessed as compound recovery at 1 uM by Thioflavin T based fluorescence assay; type: physicochemical; conditions: read-out: Drug recovery
[3] = Solubility in 100 mM glycylglycine buffer at pH 3.0 incubated for 18 hrs by UPLC analysis; type: physicochemical
[4] = Solubility in 100 mM glycylglycine buffer at pH 4.0 incubated for 18 hrs by UPLC analysis; type: physicochemical
[5] = Solubility in 100 mM bistrispropane buffer at pH 6.0 incubated for 18 hrs by UPLC analysis; type: physicochemical
[6] = Solubility in 100 mM glycylglycine buffer at pH 5.0 incubated for 18 hrs by UPLC analysis; type: physicochemical
[7] = Solubility in 100 mM bistrispropane buffer at pH 6.5 incubated for 18 hrs by UPLC analysis; type: physicochemical
[8] = Solubility in 100 mM bistrispropane buffer at pH 7.0 incubated for 18 hrs by UPLC analysis; type: physicochemical
[9] = Solubility in 100 mM bistrispropane buffer at pH 7.5 incubated for 18 hrs by UPLC analysis; type: physicochemical
[10] = Solubility in 100 mM bistrispropane buffer at pH 8.0 incubated for 18 hrs by UPLC analysis; type: physicochemical
Rattus norvegicus [11] = assay: Reduction in food intake in Sprague-Dawley rat at 3 nmol/kg measured 0 to 24 hrs post dose relative to control; type: functional; parameters: scale not given: the % may be the effect or the level left
Rattus norvegicus [12] = assay: Reduction in food intake in Sprague-Dawley rat at 3 nmol/kg measured 24 to 48 hrs post dose relative to control; type: functional; parameters: scale not given: the % may be the effect or the level left
[13] = target: T1, Amylin receptor AMY3; CALCR/RAMP3 (Homo sapiens, UniProt O60896+P30988); assay: Agonist activity at human amylin receptor expressed in BHK570 cells co-expressing RAMP3 assessed as increase in intracellular cAMP concentration incubated for 3 hrs in absence of albumin by CRE luciferase reporter gene assay; type: functional, cell-based
T1 sequence (P30988 whole entry): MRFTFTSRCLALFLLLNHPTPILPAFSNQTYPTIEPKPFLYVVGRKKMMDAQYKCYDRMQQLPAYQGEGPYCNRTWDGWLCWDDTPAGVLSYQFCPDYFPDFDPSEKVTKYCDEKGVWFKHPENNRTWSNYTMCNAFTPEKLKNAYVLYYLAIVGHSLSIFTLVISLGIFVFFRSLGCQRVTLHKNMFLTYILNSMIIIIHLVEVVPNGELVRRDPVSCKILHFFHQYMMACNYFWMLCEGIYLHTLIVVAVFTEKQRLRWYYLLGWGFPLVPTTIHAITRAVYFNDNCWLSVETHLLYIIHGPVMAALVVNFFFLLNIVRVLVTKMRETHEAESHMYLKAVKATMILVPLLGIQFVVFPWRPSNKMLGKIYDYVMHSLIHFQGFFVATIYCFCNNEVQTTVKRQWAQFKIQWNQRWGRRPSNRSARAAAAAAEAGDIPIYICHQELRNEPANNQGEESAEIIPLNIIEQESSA
T1 sequence (O60896 whole entry): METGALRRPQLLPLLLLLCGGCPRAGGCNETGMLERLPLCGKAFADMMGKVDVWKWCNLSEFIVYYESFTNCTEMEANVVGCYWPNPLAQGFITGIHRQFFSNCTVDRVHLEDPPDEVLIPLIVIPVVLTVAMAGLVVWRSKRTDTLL

Calcitonin receptor [14] = target: T2, Calcitonin receptor (Homo sapiens, UniProt P30988); assay: Agonist activity at human calcitonin receptor expressed in BHK570 cells assessed as increase in intracellular cAMP concentration incubated for 3 hrs in absence of albumin by CRE luciferase reporter gene assay; type: functional, cell-based
T2 sequence (P30988 whole entry): T1 sequence (P30988 whole entry)

[15] = target: T1, Amylin receptor AMY3; CALCR/RAMP3; assay: Agonist activity at human amylin receptor expressed in BHK570 cells co-expressing RAMP3 assessed as increase in intracellular cAMP concentration incubated for 3 hrs in presence of 10% FBS by CRE luciferase reporter gene assay; type: functional, cell-based
Calcitonin receptor [16] = target: T2, Calcitonin receptor; assay: Agonist activity at human calcitonin receptor expressed in BHK570 cells assessed as increase in intracellular cAMP concentration incubated for 3 hrs in presence of 10% FBS by CRE luciferase reporter gene assay; type: functional, cell-based
[17] = target: T1, Amylin receptor AMY3; CALCR/RAMP3; assay: Displacement of [125I]-labeled rat amylin from human amylin receptor expressed in BHK tkts13 whole cells co-expressing RAMP3 incubated for 60 mins by scintillation proximity assay; type: cell-based

Row | Time [1] [h] | remaining at 1 µM [2] [%] | solubility at 18 h [3] [µM] | solubility at 18 h [4] [µM] | solubility at 18 h [5] [µM] | solubility at 18 h [6] [µM] | solubility at 18 h [7] [µM] | solubility at 18 h [8] [µM] | solubility at 18 h [9] [µM] | solubility at 18 h [10] [µM] | EC50 [13] [nM] | EC50 (Calcitonin receptor [14]) [nM] | EC50 [15] [nM] | EC50 (Calcitonin receptor [16]) [nM] | IC50 [17] [nM] | SMILES | Activity (Rattus norvegicus [11]) [%] | Activity (Rattus norvegicus [12]) [%]
1 | > 45 | 100 | – | – | – | – | – | – | – | – | – | – | – | – | – | CC(C)C[C@H](NC(=O)[C@H](C)NC(=O)[C@H](C)NC(=O)[C@@H](NC(=O)[C@H](CO)NC(=O)[C@H](CC(C)C)NC(=O)[C@H](CCC(=O)O)NC(=O)[C@H](CO)NC(=O)[C@H](C)NC(=O)CC[C@H](NC(=O)CCCCCCCCCCCCCCCCC(=O)O)C(=O)O)[C@@H](C)O)C(=O)NCC(=O)N[C@@H](CCCNC(=N)N)C(=O)N[C@@H](CC(C)C)C(=O)N[C@@H](CO)C(=O)N[C@@H](C)C(=O)N[C@@H](CCC(=O)O)C(=O)N[C@@H](CC(C)C)C(=O)N[C@@H](Cc1c[nH]cn1)C(=O)N[C@@H](CCC(=O)O)C(=O)N[C@@H](CC(C)C)C(=O)N[C@@H](C)C(=O)N[C@H](C(=O)N[C@@H](Cc1ccc(O)cc1)C(=O)N1CCC[C@H]1C(=O)N[C@@H](CCCNC(=N)N)C(=O)N[C@H](C(=O)N[C@@H](CCC(=O)O)C(=O)N[C@H](C(=O)NCC(=O)N[C@@H](CO)C(=O)NCC(=O)N[C@@H](CO)C(=O)N1CCC[C@H]1C(N)=O)[C@@H](C)O)[C@@H](C)O)[C@@H](C)O ({C18 diacid-γGlu}-ASELSTAALGRLSAELHELATYPRTETGSGSP-NH2) | – | –
2 | – | – | ≥ 200 | ≥ 200 | ≥ 200 | ≥ 200 | ≥ 200 | ≥ 200 | ≥ 200 | ≥ 200 | 0.009 | 0.006 | 0.039 | 0.019 | 0.187 | CC(C)C[C@H](NC(=O)[C@H](C)NC(=O)[C@H](C)NC(=O)[C@@H](NC(=O)[C@H](CO)NC(=O)[C@H](CC(C)C)NC(=O)[C@H](CCC(=O)O)NC(=O)[C@H](CO)NC(=O)[C@H](C)NC(=O)[C@H](CCC(=O)O)NC(=O)CCCCCCCCCCCCCCCCC(=O)O)[C@@H](C)O)C(=O)NCC(=O)N[C@@H](CCCNC(=N)N)C(=O)N[C@@H](CC(C)C)C(=O)N[C@@H](CO)C(=O)N[C@@H](C)C(=O)N[C@@H](CCC(=O)O)C(=O)N[C@@H](CC(C)C)C(=O)N[C@@H](Cc1cnc[nH]1)C(=O)N[C@@H](CCC(=O)O)C(=O)N[C@@H](CC(C)C)C(=O)N[C@@H](C)C(=O)N[C@H](C(=O)N[C@@H](CC(C)C)C(=O)N1CCC[C@H]1C(=O)N[C@@H](CCCNC(=N)N)C(=O)N[C@H](C(=O)N[C@@H](CCC(=O)O)C(=O)N[C@H](C(=O)NCC(=O)N[C@@H](CO)C(=O)NCC(=O)N[C@@H](CO)C(=O)N1CCC[C@H]1C(N)=O)[C@@H](C)O)[C@@H](C)O)[C@@H](C)O ({C18 diacid}-EASELSTAALGRLSAELHELATLPRTETGSGSP-NH2) | 71 | 46
3 | > 45 | 100 | ≥ 200 | ≥ 200 | ≥ 200 | ≥ 200 | ≥ 200 | ≥ 200 | ≥ 200 | ≥ 200 | – | 0.031 | – | – | 3.05 | CC(C)C[C@H](NC(=O)[C@H](CO)NC(=O)CNC(=O)[C@H](CO)NC(=O)CNC(=O)[C@@H](NC(=O)[C@H](CCC(=O)O)NC(=O)[C@@H](NC(=O)[C@H](CCCNC(=N)N)NC(=O)[C@@H]1CCCN1C(=O)[C@H](CC(C)C)NC(=O)[C@@H](NC(=O)[C@H](C)NC(=O)[C@H](CC(C)C)NC(=O)[C@H](CCC(=O)O)NC(=O)[C@H](Cc1cnc[nH]1)NC(=O)[C@H](CC(C)C)NC(=O)[C@H](CCC(=O)O)NC(=O)[C@H](C)NC(=O)[C@H](CO)NC(=O)[C@H](CC(C)C)NC(=O)[C@H](CCCNC(=N)N)NC(=O)CNC(=O)[C@H](CC(C)C)NC(=O)[C@H](C)NC(=O)[C@H](C)NC(=O)[C@@H](NC(=O)[C@H](CO)NC(=O)[C@H](CC(C)C)NC(=O)[C@H](CCC(=O)O)NC(=O)[C@H](CO)NC(=O)[C@H](C)NC(=O)CC[C@H](NC(=O)CCCCCCCCCCCCCCCCCCC(=O)O)C(=O)O)[C@@H](C)O)[C@@H](C)O)[C@@H](C)O)[C@@H](C)O)C(N)=O ({C20 diacid-γGlu}-ASELSTAALGRLSAELHELATLPRTETGSGSL-NH2) | – | –
4 | – | – | ≥ 200 | ≥ 200 | ≥ 200 | ≥ 200 | ≥ 200 | ≥ 200 | ≥ 200 | ≥ 200 | 0.011 | 0.009 | 0.061 | 0.026 | 0.24 | CC(C)C[C@H](NC(=O)[C@H](C)NC(=O)[C@H](C)NC(=O)[C@@H](NC(=O)[C@H](CO)NC(=O)[C@H](CC(C)C)NC(=O)[C@H](CCC(=O)O)NC(=O)[C@H](CO)NC(=O)[C@H](C)NC(=O)[C@H](CCC(=O)O)NC(=O)CCCCCCCCCCCCCCCCCCC(=O)O)[C@@H](C)O)C(=O)NCC(=O)N[C@@H](CCCNC(=N)N)C(=O)N[C@@H](CC(C)C)C(=O)N[C@@H](CO)C(=O)N[C@@H](C)C(=O)N[C@@H](CCC(=O)O)C(=O)N[C@@H](CC(C)C)C(=O)N[C@@H](Cc1cnc[nH]1)C(=O)N[C@@H](CCC(=O)O)C(=O)N[C@@H](CC(C)C)C(=O)N[C@@H](C)C(=O)N[C@H](C(=O)N[C@@H](CC(C)C)C(=O)N1CCC[C@H]1C(=O)N[C@@H](CCCNC(=N)N)C(=O)N[C@H](C(=O)N[C@@H](CCC(=O)O)C(=O)N[C@H](C(=O)NCC(=O)N[C@@H](CO)C(=O)NCC(=O)N[C@@H](CO)C(=O)N1CCC[C@H]1C(N)=O)[C@@H](C)O)[C@@H](C)O)[C@@H](C)O ({C20 diacid}-EASELSTAALGRLSAELHELATLPRTETGSGSP-NH2) | 55.5 | 63.5

Row | SMILES | Time [1] [h] | remaining at 1 µM [2] [%] | solubility at 18 h [3] [µM] | solubility at 18 h [4] [µM] | solubility at 18 h [5] [µM] | solubility at 18 h [6] [µM] | solubility at 18 h [7] [µM] | solubility at 18 h [8] [µM] | solubility at 18 h [9] [µM] | solubility at 18 h [10] [µM] | EC50 [13] [nM] | EC50 (Calcitonin receptor [14]) [nM] | EC50 [15] [nM] | EC50 (Calcitonin receptor [16]) [nM] | IC50 [17] [nM] | Activity (Rattus norvegicus [11]) [%] | Activity (Rattus norvegicus [12]) [%]
5 | CC(C)C[C@H](NC(=O)[C@H](C)NC(=O)[C@H](C)NC(=O)[C@@H](NC(=O)[C@H](CO)NC(=O)[C@H](CC(C)C)NC(=O)[C@H](CCC(=O)O)NC(=O)[C@H](CO)NC(=O)[C@H](C)N)[C@@H](C)O)C(=O)NCC(=O)N[C@@H](CCCNC(=N)N)C(=O)N[C@@H](CC(C)C)C(=O)N[C@@H](CO)C(=O)N[C@@H](C)C(=O)N[C@@H](CCC(=O)O)C(=O)N[C@@H](CC(C)C)C(=O)N[C@@H](Cc1cnc[nH]1)C(=O)N[C@@H](CCC(=O)O)C(=O)N[C@@H](CC(C)C)C(=O)N[C@@H](C)C(=O)N[C@H](C(=O)N[C@@H](CC(C)C)C(=O)N1CCC[C@H]1C(=O)N[C@@H](CCCNC(=N)N)C(=O)N[C@H](C(=O)N[C@@H](CCCCNC(=O)CC[C@H](NC(=O)CCCCCCCCCCCCCCCCCCC(=O)O)C(=O)O)C(=O)N[C@H](C(=O)NCC(=O)N[C@@H](CO)C(=O)NCC(=O)N[C@@H](CO)C(=O)N1CCC[C@H]1C(N)=O)[C@@H](C)O)[C@@H](C)O)[C@@H](C)O | > 45 | 94 | ≥ 200 | ≥ 200 | ≥ 200 | ≥ 200 | ≥ 200 | ≥ 200 | ≥ 200 | ≥ 200 | – | – | – | – | – | – | –
